Source: US7989417B2, “Linkers for radiopharmaceutical compounds” (Bracco Imaging S.p.A., priority 2003, dated 2011)

Assays:
rat epididymal fat cells [1] = assay: Fat cell assay: activation of glucose oxidation; assay type: cell-based; settings: buffers containing serum albumin; compared with native insulin
[2] = Tracer dose biodistribution in xenografted PC3 tumor-bearing mice; settings: Lu-177 labelled; for uptake in the tumor (in words): 1 and 24 h; for uptake in the mouse pancreas (in words): compared with L134, pancreas known to have GRP receptors
Description: In all studies, mice were administered 100 μL of ^177Lu-labelled test compound at 200 μCi/kg, i.v., with a residence time of 1 and 24 h per group (n=3-4). Tissues were analyzed in an LKB 1282 CompuGamma counter with appropriate standards.

PC3 tumor = assay: Radiotherapy studies in PC3 tumor-bearing nude mouse model; assay type: in vivo; settings: Lu-177 labelled; for survival, short term efficacy study: 30 mCi/kg i.v. or s.c., up to 30 days, versus no treatment and versus same dose of L134
Description: A. Short Term Efficacy Studies: • Radiotherapy studies were performed using the PC3 tumor-bearing nude mouse model. […] (n=12 for each treatment group and n=36 for the untreated control group). For the first study, mice were administered 100 μL of ^177Lu-labelled compound of the invention at 30 mCi/kg, i.v, or s.c. under sterile conditions. The subjects were housed in a barrier environment for up to 30 days. Body weight and tumor size (by caliper measurement) were collected on each subject 3 times per week for the duration of the study. Criteria for early termination included: death; loss of total body weight (TBW) equal to or greater than 20%; tumor size equal to or greater than 2 cm^3.

rat epididymal fat cells [3] = settings: bound to a 1:1 conjugate of avidin and ferritin; compared with insulin; cited from earlier work
human serum albumin = human serum albumin (Homo sapiens, UniProt P02768); assay: Binding to human serum albumin by ultrafiltration; settings: 1 nM insulin solution in 0.6 mM human serum albumin, spiked with 125I-labeled insulin
Description: Binding to human serum albumin is determined by ultrafiltration according to Whitlam J. B. & Brown K. F.: J. Pharm. Sci. 70, 146-150, 1981, applying 1 nM bovine insulin solution in 0.6 mM human serum albumin, spiked with ^125I-labeled insulin. 95% of the insulin is bound. It is evident that such binding to albumin will reduce the renal elimination of the modified insulin (Compounds B and D) relative to that of native insulin.

| Compound | activity in fat cell assay (activation of glucose oxidation) (rat epididymal fat cells [1]) | uptake in the tumor (in words) ([2]; compared with control L134) | uptake in the mouse pancreas (in words) [2] | survival, short term efficacy study (PC3 tumor) | also measured |
| --- | --- | --- | --- | --- | --- |
| Bovine 1-[[(3β,5β,12α)-23-[(1,1-dimethyl)ethoxycarbonyl]-12-hydroxy-24-norcholan-3-yl]amino]carbonyl-3,5-bis[[4-(insulin-N^εB29-yl)-1,4-dioxobutyl]amino]benzene [Compound D] | identical activity to native insulin |  |  |  |  |
| CSCC[C@H](NC(=O)[C@H](CC(C)C)NC(=O)[C@H](Cc1c[nH]cn1)NC(=O)CNC(=O)[C@@H](NC(=O)[C@H](C)NC(=O)[C@H](Cc1c[nH]c2ccccc12)NC(=O)[C@H](CCC(N)=O)NC(=O)CC[C@@H](C)[C@H]1CC[C@H]2[C@@H]3CC[C@@H]4C[C@@H](NC(=O)CNC(=O)CN5CCN(CC(=O)O)CCN(CC(=O)O)CCN(CC(=O)O)CC5)CC[C@]4(C)[C@H]3C[C@H](O)[C@]12C)C(C)C)C(N)=O [Compound L63, N-[(3β,5β,12α)-3-[[[[[4,7,10-Tris(carboxymethyl)-1,4,7,10-tetraazacyclododec-1-yl]acetyl]amino]acetyl]amino]-12-hydroxy-24-oxocholan-24-yl]-L-glutaminyl-L-tryptophyl-L-alanyl-L-valyl-glycyl-L-histidyl-L-leucyl-L-methioninamide] |  | high tumour uptake | much higher | increased survival | distribution of radioactivity in blood, liver and kidneys (in words) ([2]; compared with control L134): increased blood and liver values at early times |
| CSCC[C@H](NC(=O)[C@H](CC(C)C)NC(=O)[C@H](Cc1c[nH]cn1)NC(=O)CNC(=O)[C@@H](NC(=O)[C@H](C)NC(=O)[C@H](Cc1c[nH]c2ccccc12)NC(=O)[C@H](CCC(N)=O)NC(=O)CC[C@@H](C)[C@H]1CC[C@H]2[C@@H]3[C@H](O)C[C@@H]4C[C@@H](NC(=O)CNC(=O)CN5CCN(CC(=O)O)CCN(CC(=O)O)CCN(CC(=O)O)CC5)CC[C@]4(C)[C@H]3C[C@H](O)[C@]12C)C(C)C)C(N)=O [Compound L64, N-[(3β,5β,7α,12α)-3-[[[[[4,7,10-Tris(carboxymethyl)-1,4,7,10-tetraazacyclododec-1-yl]acetyl]amino]acetyl]amino]-7,12-dihydroxy-24-oxocholan-24-yl]-L-glutaminyl-L-tryptophyl-L-alanyl-L-valyl-glycyl-L-histidyl-L-leucyl-L-methioninamide] |  | much higher | much higher | increased survival | survival, repeat study (PC3 tumor; same dose, n=46, followed longer, relative to controls (n=36), p<0.0001): significantly increased survival |
| N^εB29-biotinylinsulin |  |  |  |  | dose-response curve for the activation of glucose oxidation (rat epididymal fat cells [3]): same dose-response curve as insulin |
| Bovine N^eB29-[4-[[(3β,5β,12α)-23-carboxy-12-hydroxy-24-norcholan-3-yl]amino]-4-oxobutanoyl]-insulin [Compound B] | identical activity to native insulin |  |  |  | bound to human serum albumin (human serum albumin): 95% |
